We go through eight compounds from patent US20220323406A1, “METHODS AND COMPOSITIONS FOR DIFFERENTIATING STEM CELLS” (Massachusetts Institute of Technology, priority 2019, published 2022).

Entries after “also recorded” stand apart in the source; their conditions may differ. Like-named read-outs stand apart in the source and are kept apart here.

Assay [1] has as its system ENR+CD organoids (ISC to Paneth cell differentiation). The assay is described as follows: Primary screen: CCh-stimulated lysozyme secretion LYZ.S, 2.5-D 384-well ENR+CD organoid differentiation. In kind it is cell-based, mouse. The conditions noted are these: primary screen. An excerpt:
(§1) High-throughput screening.

Assay [2] has the same test system. The assay is described as follows: Primary screen: basal (non-stimulated) lysozyme secretion LYZ.NS, 2.5-D 384-well ENR+CD organoid differentiation. In kind it is cell-based, mouse.
From the text: as §1

Assay [3] concerns ENR+CD organoids.
The test system of assay [4] is 3D-cultured intestinal organoids (ENR or ENR+CD). The assay can be described thus: Lysozyme secretion assay (3D culture), normalized to ATP. The format is cell-based, mouse. The settings on record: 6-day ENR+CD differentiation; for Paneth cell differentiation (functional LYZ secretion), in combination with KPT-330: with KPT-330 (160 nM). The method, then: Lysozyme assay (3D culture). ISC-enriched organoids cultured in 3D Matrigel with ENRCV media were passaged to 48-well plate in 3D Matrigel with ENRCV. At day zero, media were replaced to ENR or ENRCD with or without indicated compounds, and media were replaced every other day. At day six, cells were washed twice with basal media and treated with carbamylcholine chloride (Sigma, C4382) for 3 hours. Media were collected and lysozyme activity was measured by EnzChek Lysozyme Assay Kit (ThermoFisher, E22013).
Lysozyme secretion assay. ISC-enriched organoids in 3D Matrigel culture were passaged to a 48- or 96-well plate and cultured with ENR or ENR+CD media containing DMSO or each drug for 6 days. DMSO- or drug-containing media were changed every other day. On day 6, cells were washed with basal media twice and treated with basal media with or without 10 μM carbamoylcholine chloride for 3 h in a CO2 incubator at 37° C. A part of the conditioned media was collected and used for lysozyme assay (Thermo, E-22013) following the manufacturer's instruction. The fluorescence was measured using excitation/emission of 485/530 nm. CellTiter-Glo 3D Reagent (Promega, G9681) was added afterward, and the cell culture plate was incubated on an orbital shaker at RT for 30 min to induce cell lysis and to stabilize the luminescent signal. The solution was replaced to a 96-well white microplate, and luminescent signals were measured by a microplate reader (infinite M200, Tecan). The standard curve was prepared by diluting recombinant ATP (Promega, P1132). For both assays, a polynomial cubic curve was fitted to a set of standard data, and each sample value was calculated on the Microsoft Excel.

Assay [5] deals with ENR+CD organoids (ISC to Paneth cell differentiation). The assay can be described thus: Secondary (validation) screen: LYZ.NS basal lysozyme secretion, 2.5-D 384-well ENR+CD organoids. The format is cell-based, mouse. The settings on record: 6-day ENR+CD, vs ENR+CD+DMSO.
Assay [6] shares this test system. The assay can be described thus: Secondary (validation) screen: LYZ.S CCh-stimulated lysozyme secretion, 2.5-D 384-well ENR+CD organoids. The format is cell-based, mouse. The settings on record: 6-day ENR+CD, vs ENR+CD+DMSO.
Assay [7] deals with ENR+CD organoids. The assay can be described thus: Secondary (validation) screen: ATP (CTG) assay, 2.5-D 384-well ENR+CD organoids. In kind it is cell-based, mouse. The conditions noted are these: 6-day ENR+CD, vs ENR+CD+DMSO.
[8] abbreviates: primary screen, dose 0.08 uM, standard z score.
Setting [9] is: primary screen, dose 0.40 uM, standard z score.
The mark [10] stands for this setting: primary screen, dose 2.00 uM, standard z score.
Where [11] appears, read: primary screen, dose 10.00 uM, standard z score.
The mark [12] stands for this setting: primary screen; dose 0.08 uM; FC vs plate median.
Where [13] appears, read: primary screen; dose 0.40 uM; FC vs plate median.
Where [14] appears, read: primary screen; dose 2.00 uM; FC vs plate median.
Setting [15] is: LYZ.NS and LYZ.S; 0.08-10 uM, 6 days ENR+CD.
Where [16] appears, read: primary screen, standard z score, dose 0.08 uM.
The mark [17] stands for this setting: primary screen, standard z score, dose 0.40 uM.
Setting [18] is: primary screen, standard z score, dose 2.00 uM.
The mark [19] stands for this setting: primary screen, standard z score, dose 10.00 uM.
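Throughout, for Z.CTG (standard z score): compounds given at plating and again on day 3 over a 6-day differentiation from ENR+CV stem-cell-enriched precursors, ATP measured on day 6, plate median as control.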
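Throughout, for Z.CTG: compounds given at plating and again on day 3 over a 6-day differentiation from ENR+CV stem-cell-enriched precursors, ATP measured on day 6, plate median as control.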

Turning to `C[C@@H]1O[C@@H](O[C@H]2C[C@@H](O)[C@]3(CO)[C@H]4[C@H](O)C[C@]5(C)[C@@H](C6=CC(=O)OC6)CC[C@]5(O)[C@@H]4CC[C@]3(O)C2)[C@H](O)[C@H](O)[C@H]1O` [Ouabain], the Dose.FC.LYZ.S in assay [1] (dose 0.08 uM, FC vs plate median) was 0.040 log2 fold change; in assay [1] (dose 0.40 uM, FC vs plate median) it was 0.035 log2 fold change; in assay [1] (dose 2.00 uM, FC vs plate median) it was 0.003 log2 fold change; in assay [1] (dose 10.00 uM, FC vs plate median), 0.050 log2 fold change. Moreover, the Z.LYZ.NS in assay [2] (setting [8]) is on record as −0.025; in assay [2] (setting [9]), 0.315; in assay [2] (setting [10]) it was 0.092; in assay [2] (setting [11]), 1.433. The Dose.FC.LYZ.NS in assay [2] (setting [12]) is given as −0.003 log2 fold change; in assay [2] (setting [13]) it was 0.036 log2 fold change; in assay [2] (setting [14]) it was 0.011 log2 fold change; in assay [2] (primary screen; dose 10.00 uM; FC vs plate median) it was 0.165 log2 fold change. For the same compound, the Dose.FC.CTG was −0.288 log2 fold change in assay [3] (10 µM), 0.010 log2 fold change in assay [3] (setting [12]), 0.122 log2 fold change in assay [3] (setting [13]) and 0.080 log2 fold change in assay [3] (setting [14]). Also, the Z.CTG in assay [3] (setting [8]) is given as 0.023; in assay [3] (setting [9]), 0.290; in assay [3] (setting [10]), 0.190; in assay [3] (setting [11]), −0.688.

`c1ccc2c(CCNc3ccc(Nc4ccncc4)cc3)c[nH]c2c1` [serdemetan]: in assay [4], the “Paneth cell differentiation (functional LYZ secretion), compound alone” value (from here on “Paneth cell differentiation … compound alone”) is listed as “neither P53 inhibitor altered Paneth cell differentiation” and the “Paneth cell differentiation (functional LYZ secretion), in combination with KPT-330” value (shortened to “Paneth cell differentiation … with KPT-330”) is given as “neither P53 inhibitor altered Paneth cell differentiation”.

As for `O=C(c1ccc(F)c(F)c1Nc1ccc(I)cc1F)N1CC(O)([C@@H]2CCCCN2)C1` [cobimetinib], in assay [4], the “Paneth cell differentiation … compound alone” value was “did not significantly alter Paneth cell differentiation” and the “Paneth cell differentiation … with KPT-330” value was “differentiation was enhanced; also recorded: significantly enhance Paneth cell differentiation”.

In the case of `Cc1ccc(C(=O)Cn2c3c(sc2=N)CCCC3)cc1` [pifithrin-α], in assay [4], the “Paneth cell differentiation … compound alone” value is “neither P53 inhibitor altered Paneth cell differentiation” and the “Paneth cell differentiation … with KPT-330” value is recorded as “neither P53 inhibitor altered Paneth cell differentiation”.

Turning to `COc1cc2c(Nc3ccc(NC(=O)c4ccccc4)cc3)ncnc2cc1OCCCN1CCOCC1` [ZM447439, reference compound], the “primary screen hit call (SSMD and z-scored FC cutoffs in both LYZ assays)” value in assay [2] (setting [15]) is given as “lower-effect size hit of the primary screen”. Further, in assay [4], the “Paneth cell differentiation … compound alone” value is reported as “did significantly increase Paneth cell differentiation”.

As for `C=C1C[C@@H]2[C@H](CC[C@]3(C)C(=O)CC[C@@H]23)[C@@]2(C)C=CC(=O)C=C12` [Exemestane], the Dose.FC.LYZ.S in assay [1] (dose 0.08 uM) is recorded as 0.062 log2 fold change; in assay [1] (dose 0.40 uM), 0.035 log2 fold change; in assay [1] (dose 2.00 uM), 0.058 log2 fold change; in assay [1] (dose 10.00 uM), −0.005 log2 fold change. In addition, the Dose.FC.LYZ.NS in assay [2] (primary screen, dose 0.08 uM) came out at 0.051 log2 fold change; in assay [2] (primary screen, dose 0.40 uM), 0.079 log2 fold change; in assay [2] (primary screen, dose 2.00 uM), 0.001 log2 fold change; in assay [2] (primary screen, dose 10.00 uM), 0.007 log2 fold change. For the same compound, the Z.LYZ.NS in assay [2] (setting [16]) is 0.447; in assay [2] (setting [17]), 0.687; in assay [2] (setting [18]), 0.012; in assay [2] (setting [19]), 0.060. Also, the Dose.FC.CTG is −0.046 log2 fold change in assay [3] (primary screen, dose 0.08 uM); −0.407 log2 fold change in assay [3] (primary screen, dose 0.40 uM); 0.170 log2 fold change in assay [3] (primary screen, dose 2.00 uM); −0.167 log2 fold change in assay [3] (primary screen, dose 10.00 uM). The Z.CTG is −0.110 in assay [3] (setting [16]), −0.973 in assay [3] (setting [17]), 0.405 in assay [3] (setting [18]) and −0.398 in assay [3] (setting [19]).

Take `CCc1c(C(=O)C(N)=O)c2c(OCC(=O)O)cccc2n1Cc1ccccc1` [Varespladib (LY315920), Varespladib, reference compound]: the Dose.FC.LYZ.NS in assay [5] (0.02 uM) is given as −0.091 log2 fold change; in assay [5] (0.04 uM), 0.015 log2 fold change; in assay [5] (0.08 uM), 0.090 log2 fold change; in assay [5] ([…]), 0.156 log2 fold change; in assay [2] (primary screen, dose 0.08 uM), 0.176 log2 fold change; in assay [2] (primary screen, dose 0.40 uM), 0.197 log2 fold change. Also, the Dose.FC.LYZ.NS was determined as 0.164 log2 fold change in assay [2] (primary screen, dose 2.00 uM) and 0.074 log2 fold change in assay [2] (primary screen, dose 10.00 uM). In addition, the Dose.FC.LYZ.S in assay [6] (0.02 uM) was −0.138 log2 fold change; in assay [6] (0.04 uM), −0.044 log2 fold change; in assay [6] (0.08 uM), 0.065 log2 fold change; in assay [6] ([…]), 0.102 log2 fold change; in assay [1] (dose 0.08 uM), 0.274 log2 fold change; in assay [1] (dose 0.40 uM) it was 0.157 log2 fold change. The Dose.FC.LYZ.S in assay [1] (dose 2.00 uM) is 0.176 log2 fold change; in assay [1] (dose 10.00 uM), 0.051 log2 fold change. For the same compound, the “primary screen hit call (SSMD and z-scored FC cutoffs in both LYZ assays)” value in assay [2] (setting [15]) is listed as “sole hit in their respective pathway”. In addition, the “Z.LYZ.NS (standard z score)” value in assay [2] (primary screen, dose 0.08 uM) was 1.533; in assay [2] (primary screen, dose 0.40 uM), 1.719; in assay [2] (primary screen, dose 2.00 uM) it was 1.430; in assay [2] (primary screen, dose 10.00 uM) it was 0.643. The Dose.FC.CTG came to 0.027 log2 fold change in assay [7] (0.02 uM); 0.113 log2 fold change in assay [7] (0.04 uM); 0.207 log2 fold change in assay [7] (0.08 uM); 0.148 log2 fold change in assay [7] ([…]); 0.428 log2 fold change in assay [3] (primary screen, dose 0.08 uM); 0.362 log2 fold change in assay [3] (primary screen, dose 0.40 uM). In addition, the Dose.FC.CTG in assay [3] (primary screen, dose 2.00 uM) was 0.152 log2 fold change; in assay [3] (primary screen, dose 10.00 uM) it was 0.241 log2 fold change. Moreover, the “Z.CTG (standard z score)” value came to 1.022 in assay [3] (primary screen, dose 0.08 uM); 0.864 in assay [3] (primary screen, dose 0.40 uM); 0.363 in assay [3] (primary screen, dose 2.00 uM); 0.575 in assay [3] (primary screen, dose 10.00 uM).

As to `CC1=C(/C=C/C(=C/C=C/C(C)=C/C(=O)O)c2ccc(C)cc2)C(C)(C)CCC1` [SR11302], in assay [4], the “Paneth cell differentiation … compound alone” value is on record as “also decreases functional LYZ secretion” and the “Paneth cell differentiation … with KPT-330” value was “significantly decreases functional LYZ secretion”.
